The text below walks through data of the supplement of paper PMC7394473.

Settings in all cases: 72 h
Assay [1] relates to U2OS. As to the kind of experiment: fractional viability (live cells / total cells); higher = less cell death. How it is done:
(§1)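 U2OS::Nuc-mKate2 cells seeded in 96-well plates and treated with eight- to ten-point half-log or log dilutions of drug in the presence of 50 nM SYTOX Green. Live (mKate2+) and dead (SYTOX+) cells were counted by IncuCyte STACK live-cell microscopy at 72 h; biological triplicates. GR is the normalised growth-rate inhibition value (Hafner 2016; 1 = untreated growth, <0 = population shrinking). FV is live/(live+dead) cells, not normalised.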

In assay [2] the test system is U2OS. As to the kind of experiment: normalized growth rate inhibition value (GR) relative to untreated cells (GR value (dimensionless, 1 = untreated growth)); higher = less growth inhibition. How it is done:
as §1

The test system of assay [3] is U2OS. As to the kind of experiment: GR50 (concentration giving GR = 0.5). How it is done: (§2)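 U2OS cells treated with full dose titrations of drug; live and dead cells counted by STACK microscopy (mKate2 nuclei, SYTOX Green) at 72 h, biological triplicates. GR and FV dose responses were fitted with 4-parameter logistic models (GR lower bound -1). GRADE (0-100) is the rescaled angle of a linear fit of FV versus GR at doses with GR >= 0, giving the percentage of the response due to cell death.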

The subject of assay [4] is U2OS. As to the kind of experiment: drug GRADE (percent of response due to cell death) (% (0-100)); higher = more death-driven response. The protocol:
as §2

Assay [5] relates to U2OS. As to the kind of experiment: GRmin (fitted minimal GR value at highest effect) (GR value (dimensionless)); higher = less efficacious. The protocol: as §2

SMILES strings stand for the structures.

As to `CCc1cncnc1N1CCN(Cc2nc3ccc(C(F)(F)F)cc3[nH]2)CC1`, the fractional viability in the assay with U2OS [1] (0.00100578 µM) worked out at 0.988; with U2OS [1] (0.00317827 µM), 0.988; with U2OS [1] (0.0100433 µM) it was 0.988; in the assay with U2OS [1] (0.0317369 µM) it was 0.988; with U2OS [1] (0.100289 µM), 0.988; with U2OS [1] (0.316912 µM), 0.986. Besides, the fractional viability in the assay with U2OS [1] (1.00144 µM) was determined as 0.992; in the assay with U2OS [1] (3.16456 µM), 0.989; in the assay with U2OS [1] (10 µM), 0.98. Also, the “normalized growth rate inhibition value” came to 1.06 in the assay with U2OS [2] (0.00100578 µM); 0.948 in the assay on U2OS [2] (0.00317827 µM); 1.04 in the assay with U2OS [2] (0.0100433 µM); 1.02 with U2OS [2] (0.0317369 µM); 0.896 with U2OS [2] (0.100289 µM); 1 in the assay with U2OS [2] (0.316912 µM). The “normalized growth rate inhibition value” in the assay on U2OS [2] (1.00144 µM) was 0.842; with U2OS [2] (3.16456 µM), 0.943; with U2OS [2] (10 µM), 0.734.

As for `Cc1nn(C)c(COc2ccc(N3CCN(S(=O)(=O)N(C)C)CC3)cc2)c1-c1cccc2c(CCCOc3cccc4ccccc34)c(C(=O)O)n(CCN3CCOCC3)c12`, the fractional viability in the assay with U2OS [1] (0.00100578 µM) was 0.991; in the assay on U2OS [1] (0.00317827 µM), 0.989; in the assay with U2OS [1] (0.0100433 µM) it was 0.987; in the assay on U2OS [1] (0.0317369 µM), 0.991; with U2OS [1] (0.100289 µM), 0.99; in the assay with U2OS [1] (0.316912 µM), 0.987. The fractional viability in the assay with U2OS [1] (1.00144 µM) is 0.978; in the assay with U2OS [1] (3.16456 µM) it was 0.96; in the assay on U2OS [1] (10 µM), 0.852. Moreover, the “normalized growth rate inhibition value” in the assay on U2OS [2] (0.00100578 µM) is 0.982; with U2OS [2] (0.00317827 µM) it was 0.925; in the assay with U2OS [2] (0.0100433 µM) it was 0.967; in the assay with U2OS [2] (0.0317369 µM), 0.917; in the assay on U2OS [2] (0.100289 µM) it was 0.934; with U2OS [2] (0.316912 µM) it was 0.942. Moreover, the “normalized growth rate inhibition value” was determined as 0.899 in the assay on U2OS [2] (1.00144 µM), 0.919 in the assay on U2OS [2] (3.16456 µM) and 0.718 in the assay with U2OS [2] (10 µM).

The compound `COC1CCN(C(=O)c2cc(Cc3n[nH]c(=O)c4ccccc34)ccc2F)CC1` [AZD2461] returned a GR50 with U2OS [3] of 21.7 µM. The fractional viability with U2OS [1] (0.01 µM) was found to be 0.974; in the assay on U2OS [1] (0.0316 µM), 0.973; in the assay on U2OS [1] (0.1 µM) it was 0.978; in the assay with U2OS [1] (0.316 µM), 0.975; in the assay with U2OS [1] (1 µM), 0.972; in the assay with U2OS [1] (3.16 µM) it was 0.97. The fractional viability in the assay on U2OS [1] (10 µM) turned out to be 0.959; with U2OS [1] (31.6 µM), 0.919. Besides, the “drug GRADE” value with U2OS [4] was found to be 13.6. For the same compound, in the assay with U2OS [5], the GRmin was found to be 0.0439. Also, the “normalized growth rate inhibition value” in the assay on U2OS [2] (0.01 µM) was 1.01; with U2OS [2] (0.0316 µM) it was 0.882; in the assay on U2OS [2] (0.1 µM), 0.946; in the assay with U2OS [2] (0.316 µM), 0.923; in the assay on U2OS [2] (1 µM) it was 0.93; in the assay on U2OS [2] (3.16 µM) it was 0.849. Moreover, the results for the “normalized growth rate inhibition value” with U2OS [2] (10 µM) and with U2OS [2] (31.6 µM) were 0.682 and 0.407, respectively.

Turning to `Cc1nc(NC(=O)N2CCC[C@H]2C(N)=O)sc1-c1ccnc(C(C)(C)C(F)(F)F)c1` [Alpelisib], the fractional viability in the assay with U2OS [1] (0.00100578 µM) worked out at 0.986; with U2OS [1] (0.00317827 µM), 0.987; in the assay with U2OS [1] (0.0100433 µM), 0.987; with U2OS [1] (0.0317369 µM), 0.985; in the assay with U2OS [1] (0.100289 µM), 0.982; in the assay on U2OS [1] (0.316912 µM), 0.98. Moreover, the results for the fractional viability with U2OS [1] (1.00144 µM), in the assay with U2OS [1] (3.16456 µM) and with U2OS [1] (10 µM) were 0.971, 0.965 and 0.938, respectively. For the same compound, the “drug GRADE” value with U2OS [4] came out at 9. The GRmin in the assay on U2OS [5] came to 0.695. The “normalized growth rate inhibition value” was determined as 0.96 with U2OS [2] (0.00100578 µM); 0.922 with U2OS [2] (0.00317827 µM); 0.922 in the assay on U2OS [2] (0.0100433 µM); 0.903 in the assay on U2OS [2] (0.0317369 µM); 0.836 in the assay on U2OS [2] (0.100289 µM); 0.752 with U2OS [2] (0.316912 µM). In addition, the figures for the “normalized growth rate inhibition value” in the assay on U2OS [2] (1.00144 µM), with U2OS [2] (3.16456 µM) and in the assay with U2OS [2] (10 µM) were 0.794, 0.79 and 0.693, respectively.

Take `C[C@H]1[C@H](OC(=O)CCC(=O)O)O[C@@H]2O[C@@]3(C)CC[C@H]4[C@H](C)CC[C@@H]1[C@@]24OO3` [Artesunate]: the GR50 with U2OS [3] was 14.7 µM. Besides, the fractional viability in the assay on U2OS [1] (0.01 µM) turned out to be 0.98; with U2OS [1] (0.0316 µM) it was 0.974; with U2OS [1] (0.1 µM), 0.976; in the assay with U2OS [1] (0.316 µM), 0.972; with U2OS [1] (1 µM), 0.977; with U2OS [1] (3.16 µM), 0.971. Moreover, the fractional viability with U2OS [1] (10 µM) turned out to be 0.941; in the assay on U2OS [1] (31.6 µM), 0.779. For the same compound, in the assay on U2OS [4], the “drug GRADE” value was 35.4. In addition, the “normalized growth rate inhibition value” in the assay on U2OS [2] (0.01 µM) is 1.02; in the assay on U2OS [2] (0.0316 µM) it was 0.827; in the assay on U2OS [2] (0.1 µM), 0.944; with U2OS [2] (0.316 µM) it was 0.928; in the assay on U2OS [2] (1 µM) it was 0.89; in the assay with U2OS [2] (3.16 µM), 0.814. Also, the “normalized growth rate inhibition value” came out at 0.63 in the assay on U2OS [2] (10 µM) and 0.178 in the assay with U2OS [2] (31.6 µM).
